In this experiment the test system is ventral prostate and seminal vesicle weights, testosterone propionate-treated castrated male Sprague Dawley rats. Put plainly: Ventral Prostate and Seminal Vesicle Weight In Vivo Assay. Conditions: percent inhibition of testosterone-enhanced prostate weight; immature castrated male rats; test compound usually orally 40 mg/kg (2 mg/day) once daily for five days plus testosterone propionate 2 mg/kg s.c. The protocol:
Ventral Prostate and Seminal Vesicle Weight In Vivo Assay
Immature (approximately 50 g) castrated male Sprague Dawley rats (Charles River) were treated once daily for five days with test compound (usually given orally at 40 mg/kg in a volume of 0.3 mL, in 30% cyclodextrin or 0.5% methylcellulose vehicle) and with testosterone propionate (given subcutaneously by injection at the nape of the neck at 2 mg/kg, in a volume of 0.1 mL in sesame oil). On the sixth day, the rats were euthanized by asphyxiation in carbon dioxide. Ventral prosatates and seminal vesicles were removed and their wet weights determined. Test compound activity was determined as the percent inhibition of testosterone-enhanced tissue weights, with a vehicle-treated control group set to zero percent and a testosterone alone-treated control group set to 100%.
Representative compounds of the present invention were tested according to the procedure described, with results as listed in Table 7 below. A test compound is listed as “active” if the non weight adjusted prostate weight was ≦40 mg or the % Inhibition prostate weight, body weight adjusted was ≧40%@ 2 mg/day dosage. ID50's, if determined, of ≦15 mg/day also indicated an “active” compound.
“3,3,3-Trifluoro-2-methoxy-2-phenyl-propionic acid 1-(5,6-dichloro-1H-benzamidazol-2-yl)-2,2,2-trifluoro-1-methyl-ethyl ester [Compound 107]”: the result was active.
With `CSCC(C)(O)c1nc2cc(Cl)c(Cl)cc2n1C` (stereo not shown) [Compound 12], the outcome was active.
To `Cn1c(C(C)(O)CSCc2ccccc2)nc2cc(Cl)c(Cl)cc21` (stereo not shown) [Compound 23] belongs “active”.
`O=[N+]([O-])c1cc2nc(C(O)C(F)(F)F)[nH]c2cc1[N+](=O)[O-]` (stereo not shown) [Compound 155, 1-(5,6-Dinitro-1H-benzoimidazol-2-yl-)2,2,2-trifluoro-ethanol]: the outcome was inactive.

Source of the values: patent publication US7795446B2, “Benzimidazole derivatives useful as selective androgen receptor modulators (SARMS)” (priority 2004, dated 2010).
